Reference: ChEMBL document CHEMBL1614629, “Extrapolation of human pharmacokinetic parameters from rat, dog, and monkey data: Molecular properties associated with extrapolative success or failure” (J Pharm Sci, 2005)

Key:
[1] = Clearance in monkey after iv administration; type: ADME, organism-based; details: macaca, in vivo
[2] = Clearance in rat after iv administration; type: ADME, organism-based; details: in vivo
[3] = Volume of distribution at steady state in dog after iv administration; type: ADME, organism-based, Canis lupus familiaris; details: in vivo, read-out: Vdss
[4] = Volume of distribution at steady state in human after iv administration; type: ADME, organism-based; details: in vivo; for Vd: read-out: Vdss
[5] = Volume of distribution at steady state in rat after iv administration; type: ADME, organism-based; details: in vivo
[6] = Volume of distribution at steady state in monkey after iv administration; type: ADME, organism-based; details: macaca, in vivo, read-out: Vdss
[7] = Clearance in human after iv administration; type: ADME, organism-based; details: in vivo
[8] = Clearance in dog after iv administration; type: ADME, organism-based, Canis lupus familiaris; details: in vivo

Structure (SMILES)	clearance [1] [mL/min/kg]	clearance [2] [mL/min/kg]	Vd [3] [L/kg]	Vd [4] [L/kg]	Vdss [5] [L/kg]	Vd [6] [L/kg]	clearance [7] [mL/min/kg]	clearance [8] [mL/min/kg]	Vdss [4] [L/kg]
O=C(O)C[C@H](NC(=O)CP(=O)(O)O)C(=O)O [PALA]	3.7	53	0.6	0.35	4.5	0.35	0.8	7	–
O=C(O)Cc1ccccc1Nc1c(Cl)cccc1Cl [DICLOFENAC]	8.7	9.4	0.23	0.17	0.75	0.17	4.2	1.6	–
CCC1(C)CC(=O)NC1=O (stereo unspecified) [ETHOSUXIMIDE]	0.33	3.1	0.59	0.63	0.68	0.82	0.15	0.42	–
O=[N+]([O-])O[C@H]1CO[C@H]2[C@@H]1OC[C@H]2O[N+](=O)[O-] [ISOSORBIDE DINITRATE]	59	118	3	–	4.9	1.7	3.6	180	0.05
O=C1NC(=O)C(c2ccccc2)(c2ccccc2)N1 [PHENYTOIN]	7.9	7.4	1	1.4	0.64	7.8	0.57	2.8	–
CC(C)N(CCC(C(N)=O)(c1ccccc1)c1ccccn1)C(C)C (stereo unspecified) [DISOPYRAMIDE]	19	34	2.3	0.78	6.2	2	2.4	29	–
Cc1c(C)c2c(c(C)c1O)CCC(C)(COc1ccc(CC3SC(=O)NC3=O)cc1)O2 (stereo unspecified) [TROGLITAZONE]	8.3	22	0.77	0.71	1	0.71	3.5	6.6	–
O=P1(N(CCCl)CCCl)NCCCO1 (stereo unspecified) [CYCLOPHOSPHAMIDE ANHYDROUS]	20	12	0.7	0.7	0.8	1.3	2.6	20	–
CC1=NC(=O)C(CCN(C(C)C)C(C)C)(c2ccccc2)C2CCCCN12 (stereo unspecified) [ACTISOMIDE]	16.4	9.8	1.1	0.58	1.1	1.6	6.8	9	–
N[C@@H](Cc1ccc(O)c(O)c1)C(=O)O [LEVODOPA]	17	109	0.4	1.7	9.8	0.47	23	19	–
Cc1cccc(C)c1NC(=O)NCCCNC(C)C	32	82	1.2	1.4	3.2	3.8	7.2	13	–
CO/N=C(\C(=O)N[C@@H]1C(=O)N2C(C(=O)O)=C(CSc3nc(=O)c(=O)[nH]n3C)CS[C@H]12)c1csc(N)n1 [CEFTRIAXONE]	0.45	4	0.24	0.16	0.18	0.11	0.24	4	–
CC[C@]1(O)C[C@@H]2CN(CCc3c([nH]c4ccccc34)[C@@](C(=O)OC)(c3cc4c(cc3OC)N(C)[C@H]3[C@@](O)(C(=O)OC)[C@H](OC(C)=O)[C@]5(CC)C=CCN6CC[C@]43[C@@H]65)C2)C1 [VINBLASTINE]	7	25	2.3	24	12	1.5	12	22	–
Cc1cc(=O)n(-c2ccccc2)n1C [ANTIPYRINE]	4.4	10	0.62	0.87	0.97	0.74	0.66	5.5	–
O=C1CN=C(c2ccccc2Cl)c2cc([N+](=O)[O-])ccc2N1 [CLONAZEPAM]	14	21	1.6	5.5	3	6.8	1.6	11	–
CN(C)CCCC1(c2ccc(F)cc2)OCc2cc(C#N)ccc21 (stereo unspecified) [CITALOPRAM]	39	82	10	14	21	10	5	14	–

Structure (SMILES)	clearance [1] [mL/min/kg]	clearance [2] [mL/min/kg]	Vd [3] [L/kg]	Vd [4] [L/kg]	Vdss [5] [L/kg]	Vd [6] [L/kg]	clearance [7] [mL/min/kg]	clearance [8] [mL/min/kg]	Vdss [4] [L/kg]
CO[C@@]1(NC(=O)C(C(=O)[O-])c2ccc(O)cc2)C(=O)N2C(C(=O)[O-])=C(CSc3nnnn3C)CO[C@@H]21.[Na+].[Na+] (stereo partly specified) [MOXALACTAM DISODIUM]	2	9.4	0.2	0.27	0.28	0.16	1.2	2.2	–
NC(=O)c1cc[n+](COC[n+]2ccccc2/C=N/O)cc1 [HI-6]	8.6	9.8	0.26	0.39	0.3	0.34	3.2	3.7	–
NCC1(CC(=O)O)CCCCC1 [GABAPENTIN]	2.6	9.5	0.16	0.82	1.2	0.68	1.8	2.3	–
COc1cccc2c1C(=O)c1c(O)c3c(c(O)c1C2=O)C[C@@](O)(C(=O)CO)C[C@@H]3O[C@H]1C[C@H](N)[C@H](O)[C@H](C)O1 [DOXORUBICIN]	28	34	44	25	25	24	17	17	–
C[C@@H](O)[C@H]1C(=O)N2C(C(=O)[O-])=C(SC3Cn4cnc[n+]4C3)[C@H](C)[C@H]12 (stereo partly specified) [BIAPENEM]	5.3	16	0.28	0.25	0.24	0.23	2.7	6.2	–
O=[N+]([O-])O[C@@H]1CO[C@H]2[C@@H]1OC[C@@H]2O [ISOSORBIDE MONONITRATE]	11	2.5	0.8	0.6	0.97	0.5	1.7	6.9	–
CO/N=C(\C(=O)N[C@@H]1C(=O)N2C(C(=O)[O-])=C(C[N+]34CCC(C(N)=O)(CC3)CC4)CS[C@H]12)c1nsc(N)n1 [CEFCLIDIN]	3.4	8.8	0.23	0.17	0.22	0.28	1.5	3.6	–
CO[C@@]1(NC(=O)C2SC(=C(C(N)=O)C(=O)O)S2)C(=O)N2C(C(=O)O)=C(CSc3nnnn3C)CS[C@@H]21 (stereo partly specified) [CEFOTETAN]	1.7	13	0.25	0.13	0.25	0.17	0.5	4	–
C[C@@H]1[C@H](O)[C@@H](C)/C=C/C=C/C=C/C=C/C=C/C=C/C=C/[C@H](O[C@@H]2O[C@H](C)[C@@H](O)[C@H](N)[C@@H]2O)C[C@@H]2O[C@](O)(C[C@@H](O)C[C@@H](O)[C@H](O)CC[C@@H](O)C[C@@H](O)CC(=O)O[C@H]1C)C[C@H](O)[C@H]2C(=O)O [AMPHOTERICIN B]	0.1	2	0.5	4	2.3	0.2	0.4	0.1	–
O=C(OC1C[C@@H]2CC3C[C@@H](C1)N2CC3O)c1c[nH]c2ccccc12 (stereo partly specified)	77	94	9.6	11	15	28	22	27	–
CO[C@@]1(NC(=O)CSCC#N)C(=O)N2C(C(=O)O)=C(CSc3nnnn3C)CS[C@@H]21 [CEFMETAZOLE]	3.8	40	0.24	0.14	0.49	0.14	1.8	5.3	–
N[C@H](C(=O)O)[C@@H]1CC(Cl)=NO1 [ACIVICIN]	3.3	5.2	0.5	0.58	0.65	0.56	0.78	1.3	–
CO/N=C(\C(=O)N[C@@H]1C(=O)N2C(C(=O)O)=C(CSc3nc(C)c(CC(=O)O)s3)CS[C@H]12)c1csc(N)n1 [CEFODIZIME]	1.2	1.1	0.26	0.15	0.18	0.15	0.73	4.1	–
NC1(C(=O)O)CC1 [1-Aminocyclopropane carboxylic acid]	3.1	3.2	0.7	0.73	0.64	0.72	1.5	0.4	–
COCCOC(=O)C1=C(C)NC(C)=C(C(=O)OC(C)C)C1c1cccc([N+](=O)[O-])c1 (stereo unspecified) [NIMODIPINE]	33	56	3.2	0.9	0.96	3.6	14	34	–
C#C[C@]1(O)CC[C@H]2[C@@H]3CCc4cc(O)ccc4[C@H]3[C@@H](OC)C[C@@]21C [MOXESTROL]	3.2	52	0.63	0.24	1.4	1.8	0.34	5.2	–
